Broadly, the pKd is the negative decadic logarithm of the Kd, by convention in mol/L. Read a high pKd as a small Kd.

Consider one molecule from US6610744B2, “Methods of treatment with compounds having RARα receptor specific or selective activity” (Allergan, Inc., priority 1995, dated 2003).

pKd: −log10 of the molar value.

The nature of data set [1]: Weight loss in rats treated for 3 days. The data set is classed as in vivo, rat. Here is the method:
Weight loss or gain that experimental animals experience upon administration of retinoid compounds is another test of the drug's toxicity, with significant weight loss at relatively low doses indicating a significant toxic side effect of the retinoid. In one experiment, groups of 5 rats were treated with varying doses (administered in corn oil) of a test retinoid for 3 days. The rats were euthanized 24 hours after the last dose.

The test system of data set [2] is AML-193 cells (acute monocytic leukemia). Briefly: AML 193 cell culture assay (3H-thymidine incorporation). The data set is classed as cell-based, human. The settings on record: FIG. 2. In short, it runs like this: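 t-RA from 1 mM ethanol stock, diluted in medium; ethanol-matched controls, subdued light. AML-193 cells (GM-CSF/insulin-dependent) at 1,000 cells/well incubated 96 h at 37 °C with retinoids, then 6 h with 1 μCi [3H]-thymidine; TCA-precipitated DNA counted by scintillation, mean dpm of triplicates ±SEM.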
(In general: Incorporation of labelled thymidine or its analogues reports DNA synthesis.)

The next data set deals with T1, RXRΓ (Homo sapiens, UniProt P48443).
T1 construct: made in house; host or cells: Baculovirus expression (insect cell extract)
T1 sequence (P48443 1-463): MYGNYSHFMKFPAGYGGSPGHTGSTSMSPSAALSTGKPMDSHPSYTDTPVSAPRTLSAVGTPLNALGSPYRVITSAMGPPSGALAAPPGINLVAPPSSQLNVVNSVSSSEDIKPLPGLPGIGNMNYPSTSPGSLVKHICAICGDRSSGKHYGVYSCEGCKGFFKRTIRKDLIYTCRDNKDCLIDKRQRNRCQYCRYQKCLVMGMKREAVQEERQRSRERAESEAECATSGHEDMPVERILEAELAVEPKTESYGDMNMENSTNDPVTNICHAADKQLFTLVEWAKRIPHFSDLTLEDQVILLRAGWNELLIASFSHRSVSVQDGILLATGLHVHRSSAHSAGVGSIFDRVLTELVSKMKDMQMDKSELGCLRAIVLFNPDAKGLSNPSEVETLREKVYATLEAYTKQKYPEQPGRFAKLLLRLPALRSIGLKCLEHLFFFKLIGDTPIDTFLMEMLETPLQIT
Briefly: Ligand binding assay, RXRΓ. How it is done:
All binding assays were performed in a similar fashion. All six receptor types were derived from the expressed receptor type (RARα, β, Γ and RXRα, β, Γ) expressed in Baculovirus. Stock solutions of all compounds were prepared as 10 mM ethanol solutions and serial dilutions carried out into 1:1 DMSO; ethanol. Assay buffers consisted of the following for all six receptor assays: 8% glycerol, 120 mM KCl 8 mM Tris, 5 mM CHAPS 4 mM DTT and 0.24 mM PMSF, pH-7.4@ room temperature.
All receptor binding assays were performed in the same manner. The final assay volume was 250 μl and contained from 10-40 μg of extract protein depending on receptor being assayed along with 5 nM of [^3H] all-trans retinoic acid or 10 nM [^3H] 9-cis retinoic acid and varying concentrations of competing ligand at concentrations that ranged from 0-10^−5 M. The assays were formatted for a 96 well minitube system. Incubations were carried out at 4° C. until equilibrium was achieved. Non-specific binding was defined as that binding remaining in the presence of 1000 nM of the appropriate unlabeled retinoic acid isomer. At the end of the incubation period, 50 μl of 6.25% hydroxyapitite was added in the appropriate wash buffer. The wash buffer consisted of 100 mM KCl, 10 mM Tris and either 5 mM CHAPS (RXRα, β, Γ) or 0.5% Triton X-100 (RARα, β, Γ). The mixture was vortexed and incubated for 10 minutes at 4° C., centrifuged and the supernatant removed. The hydroxyapitite was washed three more times with the appropriate wash buffer. The receptor-ligand complex was adsorbed by the hydroxyapitite. The amount of receptor-ligand complex was determined by liquid scintillation counting of hydroxyapitite pellet.
After correcting for non-specific binding, IC50 values were determined. […] The IC50 value was determined graphically from a loglogit plot of the data. The […] were determined by application of the Cheng-Prussof equation to the IC50 values, the labeled ligand concentration and the Kd of the labeled ligand.
The results of ligand binding assay are expressed in Kd numbers. (See Cheng et al. Biochemical Pharmacology Vol. 22 pp 3099-3108, expressly incorporated herein by reference.)

For the molecule `CC(C)(C)c1cc(C(=O)Nc2ccc(C(=O)O)c(F)c2)cc(C(C)(C)C)n1` [Compound 42], the mucocutaneous toxicity result in data set [1] (rats, 10, 30 and 90 μmol/kg/day for 3 days) was “significant mucocutaneous toxicity was not observed”. For the same molecule, the “weight loss compared to control” value in data set [1] (rats, daily doses up to 90 μmol/kg/day in corn oil for 3 days, FIG. 6, FIG. 7) is reported as “virtually no weight loss, as compared to the control, except in a very high dose (90 μmol/kg/day)”. In data set [2] (96 hours), the “growth of AML 193 malignant cells” value is reported as “inhibited the growth”. Further, in data set [2] (low concentrations), the “growth of AML 193 cells at low concentrations” value is “inhibit the malignant cell growth at low concentrations”. The molecule also had a negative-log Kd (pKd) at RXRΓ of less than 6.00.
